# Patent US12053506B2, “Romo1-derived antimicrobial peptides and variants thereof” (priority 2019, dated 2024)
# No end group written: not given here.
# Key:
# [1] = test system: Staphylococcus aureus, Pseudomonas aeruginosa, methicillin-resistant Staphylococcus aureus and multidrug-resistant Pseudomonas aeruginosa; assay: Bacteria remaining in the blood of intravenously infected mice; assay type: in vivo, mice (C57BL/6); conditions: 10 mg/kg intravenous 1 hour after infection; blood collected 40 minutes after injection; compared with LL-37, magainin 2, daptomycin
# Procedure: Specifically, Staphylococcus aureus, Pseudomonas aeruginosa, methicillin-resistant Staphylococcus aureus and multidrug-resistant Pseudomonas aeruginosa was cultured in 3% (w/v) TSB liquid medium at 37° C. and 200 rpm for 4 hours, and then further cultured under the same conditions for 3 hours to a concentration of 5×10^9 CFU/ml. Strain solutions were prepared by diluting each of the further cultured strains with PBS solution to a final concentration of 1×10^5 CFU/μl.
# Next, 100 μl of each strain solution was injected intravenously (IV) into the tail vein of each of 10-week-old male mice (C57BL/6). After one hour, KU-5878 was intravenously injected at a concentration of 10 mg/kg. As a control, PBS was intravenously injected at a concentration of 10 mg/kg, and as a positive control, LL-37, magainin 2, or daptomycin was intravenously injected at a concentration of 10 mg/kg.
# 40 minutes after the intravenous injection of each drug, about 1 cm from the tail end of each mouse was cut using surgical scissors, and 10 μl of the blood at the end of the cut was collected and diluted in PBS. The diluted blood sample was plated on a previously prepared TSB agar plate and incubated in an incubator at 37° C. for 18 hours, and the formed colonies were counted for comparison.
# [2] = Toxicity in vivo after intravenous injection; set-up: species or system mouse (C57BL/6); conditions: 100 mg/kg intravenous
# Procedure: At this time, the maximum volume of the injection dose was 150 μl.
# [3] = test system: Pseudomonas aeruginosa and Staphylococcus aureus; assay: MBC assay, antibacterial activity of Romo1-derived peptides compared in words; assay type: cell-based; conditions: Table 1 peptides
# Text: Romo1 protein comprises two α-helices. The present inventors synthesized the α-helix 2 region having both hydrophilicity and hydrophobicity, and evaluated the antibacterial activity thereof using minimum bactericidal concentration (MBC) assay. The α-helix 2 region was named KU-5279 (the 52-79 amino acid region of Romo1 protein). Then, in order to identify peptides that are beneficial for human application and have excellent antibacterial activity, the present inventors synthesized several peptides comprising a sequence of contiguous amino acids starting at any amino acid selected from the 52-79 amino acid region of Romo1 protein, and comparatively evaluated the antibacterial activities of the peptides by minimum bactericidal concentration assay (See Table 1 below for information on each peptide). Evaluation of the antibacterial activity of each peptide by minimum bactericidal concentration assay was specifically performed as follows. First, each of Pseudomonas aeruginosa (ATCC 27853) and Staphylococcus aureus (ATCC 29213) was cultured in 3% (w/v) TSB (Tryptic Soy Broth) liquid medium at 37° C. and 200 rpm for 4 hours, and then further cultured under the same conditions for 3 hours to a concentration of 5×10^6 CFU/ml. […]
# [4] = test system: Staphylococcus aureus, Pseudomonas aeruginosa, Klebsiella pneumoniae and Acinetobacter baumannii; assay: Survival rate of mice injected with gram-positive or gram-negative bacteria; assay type: in vivo, mice (C57BL/6); conditions: FIG. 3, bacteria only 0 to 20%
# Text: Following Example 2-2, in order to evaluate the antibacterial activity of KU-5878 peptide in vivo, Staphylococcus aureus as gram-positive bacteria, Pseudomonas aeruginosa, Klebsiella pneumoniae and Acinetobacter baumannii as gram-negative bacteria, and multidrug-resistant Pseudomonas aeruginosa, methicillin-resistant Staphylococcus aureus, multidrug-resistant Klebsiella pneumoniae and multidrug-resistant Acinetobacter baumannii as multidrug-resistant bacteria were selected, and the following experiment was performed.
# The experimental method is as described in Example 2-2 above. For a positive group, each type of the bacteria was injected into mice, and after 24 hours, 30 mg/kg of imipenem, a carbapenem-based antibiotic, was injected intraperitoneally (IP), and then the same amount of imipenem was administered intraperitoneally a total of 4 times at 12-hour intervals. The survival rates of each control group and the experimental group were measured at 24-hour intervals.
# [5] = test system: Multidrug-resistant K. pneumoniae; conditions: Multidrug-resistant
# Procedure: (§1) The minimum bactericidal concentration assay was the same as the method used in Example 1.
# (§2) Specifically, each type of bacteria was cultured in 3% (w/v) TSB (Tryptic Soy Broth) liquid medium at 37° C. and 200 rpm for 4 hours, and then further cultured under the same conditions for 3 hours to a concentration of 5×10^6 CFU/ml. Strain solutions were prepared by diluting each of the […] of 2×10^5 CFU/ml.
# (§3) Then, the KU-5878 peptide at varying concentrations (0 μg/ml to 300 μg/ml) was dispensed into each well of a 96-well microplate, and 100 μl (1×10^5 CFU/ml) of each of the prepared strain solutions was added thereto, mixed therewith, and allowed to react with the peptide in an incubator at 37° C. for 1 hour.
# (§4) In addition, 10 μl of each reaction solution of the peptide and the strain was plated on the TS agar plate at a constant size, and incubated in an incubator at 37° C. for 18 hours, and then colony formation on the plate was checked.
# (§5) Meanwhile, the multidrug-resistant Pseudomonas aeruginosa, multidrug-resistant Acinetobacter and multidrug-resistant Klebsiella in Table 2 below were bacteria isolated from patients at Korea University Anam Hospital. […] Then, these bacteria were used in the experiment.
# [6] = test system: Multidrug-resistant A. baumannii; conditions: Multidrug-resistant
# Procedure: as §1, §2, §3, §4, §5
sequence,measurement,setting,value
KTMMQSGGTFGTFMAIGMGIR [KU-5878],number of bacteria remaining in the blood vessels of the mice,[1],most greatly decreased
same,survival of mice after injection,[2]; 12 days,all survived
same,effect on the weight of the mice,"[2]; weights at 24-hour intervals for 12 days, FIG. 7",no effect on the weight of the mice
same,"antibacterial activity by MBC assay, in words",[3],three times better antibacterial activity than KU-5279
same,survival rate of the mice,[4],60%
same,"MBC value (μg/ml), Multidrug-resistant K. pneumoniae",[5],100 µg/mL
same,"MBC value (μg/ml), Multidrug-resistant A. baumannii",[6],110 µg/mL
